Assay results: patent US6716986B2, “Sulfuric acid mono-[3-({1-[2-(4-fluoro-phenyl)-ethyl]-piperidin-4-YL}-hydroxy-methyl)-2-methoxy-phenyl]ester” (Aventis Pharmaceuticals Inc., priority 1999, dated 2004)

Columns and labels:
[1] = In vitro BBMEC permeability (transport studies); type: in vitro ADME; conditions: bovine, mean±standard deviation
Procedure: The procedure was performed according to: Kenneth L. Audus et al., Brain Microvessel Endothelial Cell Culture System (Chapter 13) pp 239-258. In Models for Assessing Drug Absorption and Metabolism, Ronald T. Borchardt et al. eds., Plenum Press, New York 1996, incorporated herein by reference.

human 5-HT2A = molecular target: T1, human 5-HT2A (Homo sapiens, UniProt P28223); experiment: In vitro inhibition of [3H]-ligand binding to human 5-HT2A receptor
T1 construct: expressed in transfected cells
T1 sequence (P28223 whole entry): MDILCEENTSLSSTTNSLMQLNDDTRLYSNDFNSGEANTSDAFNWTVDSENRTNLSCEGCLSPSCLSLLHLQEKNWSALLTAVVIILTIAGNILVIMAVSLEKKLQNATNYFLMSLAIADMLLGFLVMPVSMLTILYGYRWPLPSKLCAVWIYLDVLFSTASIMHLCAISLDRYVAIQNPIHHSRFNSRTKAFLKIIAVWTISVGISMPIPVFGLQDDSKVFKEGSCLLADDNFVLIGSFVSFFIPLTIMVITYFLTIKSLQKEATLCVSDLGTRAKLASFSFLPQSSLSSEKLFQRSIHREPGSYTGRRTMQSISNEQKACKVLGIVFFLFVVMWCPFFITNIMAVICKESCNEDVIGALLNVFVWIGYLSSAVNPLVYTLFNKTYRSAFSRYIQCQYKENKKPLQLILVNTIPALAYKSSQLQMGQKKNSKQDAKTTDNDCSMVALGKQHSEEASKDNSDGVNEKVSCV
Procedure: Cells stably expressing the human homologs of the receptors (dopamine D2L, serotonin 5HT2A and 5HT2C, α1A adrenergic; cloned and expressed at Hoechst Marion Roussel; Grandy et al., 1989; Monsma et al., 1993; Schwinn et al., 1995) were grown; cell membranes were prepared, and kept frozen until used (Kongsamut et al., 1996). The relevance of these binding sites has been extensively discussed in the literature (see for example: Carlsson & Carlsson, 1990; Creese et al., 1976; Gorman & Vargas, 1995; Meltzer et al., 1989). All binding parameters were optimized at Hoechst Marion Roussel; ligand Kds were determined using both saturation analysis (Scatchard) as well as kinetic analysis (association and dissociation rates). Each batch of membrane was validated by checking the ligand Kd, and rank order of potency of selected standard compounds. […]
(§1) Membranes were rapidly thawed and diluted to an appropriate concentration (between 20-150 μg protein/assay point depending on receptor expression level) in Tris buffer and homogenized. […] Microscint scintillation cocktail (40 μl) were added and the filter plates were counted in a Packard Top Count scintillation counter. Data were analyzed to determine Ki's for compounds of interest (Prusoff & Cheng, 19).Table: Receptor Binding Parameters.

human D2L = molecular target: T2, human D2L (Homo sapiens, UniProt P14416); experiment: In vitro inhibition of [3H]-ligand binding to human D2L receptor; conditions: [3H]N-methyl spiperone, CHO cell membranes, 37° C.; read-out: D2 (Ki μM)
T2 construct: expressed in transfected cells
T2 sequence (P14416 whole entry): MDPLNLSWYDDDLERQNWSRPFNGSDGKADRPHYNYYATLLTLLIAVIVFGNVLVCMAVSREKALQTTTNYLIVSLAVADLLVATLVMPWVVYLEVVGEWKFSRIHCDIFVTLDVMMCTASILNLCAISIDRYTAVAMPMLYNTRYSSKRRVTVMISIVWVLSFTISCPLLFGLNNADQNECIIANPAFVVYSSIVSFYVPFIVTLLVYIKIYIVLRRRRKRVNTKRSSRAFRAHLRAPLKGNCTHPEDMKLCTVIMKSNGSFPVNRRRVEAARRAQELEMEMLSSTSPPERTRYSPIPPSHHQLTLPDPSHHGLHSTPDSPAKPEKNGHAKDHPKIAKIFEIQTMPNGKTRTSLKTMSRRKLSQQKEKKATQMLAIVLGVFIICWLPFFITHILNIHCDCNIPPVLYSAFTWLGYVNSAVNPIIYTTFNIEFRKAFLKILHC
Procedure: (§2) Cells stably expressing the human homologs of the receptors (dopamine D2L, serotonin 5HT2A and 5HT2C, α1A adrenergic; cloned and expressed at Hoechst Marion Roussel; Grandy et al., 1989; Monsma et al., 1993; Schwinn et al., 1995) were grown; cell membranes were prepared, and kept frozen until used (Kongsamut et al., 1996). […] All binding parameters were optimized at Hoechst Marion Roussel; ligand Kds were determined using both saturation analysis (Scatchard) as well as kinetic analysis (association and dissociation rates). Each batch of membrane was validated by checking the ligand Kd, and rank order of potency of selected standard compounds. Assays for the serotonin 5HT2A and dopamine D2L receptors were conducted at 37° C. in a Tris buffer containing salts (50 mM Tris Buffer, pH 7.7; 120 mM NaCl; 5 mM KCl; 2 mM CaCl2; 1 mM MgCl2), while the serotonin 5-HT2C and α1A adrenergic receptor assays used a different buffer without salts (50 mM Tris, 4 mM CaCl2 and 1% ascorbate, pH 7.4). […]
as §1, with “counter.” for “counter. Data were analyzed to determine Ki's for compounds of interest (Prusoff & Cheng, 19).Table: Receptor Binding Parameters.”

human 5-HT2c = molecular target: T3, human 5-HT2c (Homo sapiens, UniProt P28335); experiment: In vitro inhibition of [3H]-ligand binding to human 5-HT2C receptor; conditions: [3H]mesulergine, CHO cell membranes
T3 construct: expressed in transfected cells
T3 sequence (P28335 33-458): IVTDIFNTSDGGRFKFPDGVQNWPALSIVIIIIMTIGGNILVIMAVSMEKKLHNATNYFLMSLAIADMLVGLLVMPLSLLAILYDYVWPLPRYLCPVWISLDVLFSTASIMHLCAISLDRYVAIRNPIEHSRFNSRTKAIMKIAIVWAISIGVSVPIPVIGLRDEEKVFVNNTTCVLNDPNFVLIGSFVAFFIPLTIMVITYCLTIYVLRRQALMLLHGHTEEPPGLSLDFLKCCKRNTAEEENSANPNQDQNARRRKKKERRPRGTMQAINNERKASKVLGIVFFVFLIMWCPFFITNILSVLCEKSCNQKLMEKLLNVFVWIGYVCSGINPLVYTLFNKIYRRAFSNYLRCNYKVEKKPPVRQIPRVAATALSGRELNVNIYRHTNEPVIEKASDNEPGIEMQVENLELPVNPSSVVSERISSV
Procedure: as §2
as §1, with “counter.” for “counter. Data were analyzed to determine Ki's for compounds of interest (Prusoff & Cheng, 19).Table: Receptor Binding Parameters.”

human α1A = molecular target: T4, human α1A (Homo sapiens, UniProt P35348); experiment: In vitro inhibition of [3H]-ligand binding to human α1A adrenergic receptor; conditions: [3H]prazosin, CHO cell membranes
T4 construct: expressed in transfected cells
T4 sequence (P35348 1-466): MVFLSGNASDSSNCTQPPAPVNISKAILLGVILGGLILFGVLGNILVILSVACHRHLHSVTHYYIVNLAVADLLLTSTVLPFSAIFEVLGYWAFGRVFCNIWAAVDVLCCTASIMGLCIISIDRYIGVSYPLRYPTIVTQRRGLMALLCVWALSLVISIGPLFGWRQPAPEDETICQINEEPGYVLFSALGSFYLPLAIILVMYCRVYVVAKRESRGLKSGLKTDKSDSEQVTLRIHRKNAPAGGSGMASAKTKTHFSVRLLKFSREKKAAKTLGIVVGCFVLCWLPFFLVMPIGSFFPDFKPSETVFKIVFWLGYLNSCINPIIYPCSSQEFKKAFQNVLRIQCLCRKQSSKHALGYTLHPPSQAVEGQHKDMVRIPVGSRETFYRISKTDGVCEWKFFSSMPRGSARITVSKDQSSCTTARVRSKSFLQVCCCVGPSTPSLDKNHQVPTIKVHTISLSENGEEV
Procedure: as §2
as §1, with “counter.” for “counter. Data were analyzed to determine Ki's for compounds of interest (Prusoff & Cheng, 19).Table: Receptor Binding Parameters.”

Work on `OC[C@@H](O)[C@@H](O)[C@H](O)[C@H](O)CO` [Mannitol (standard), Mannitol] yielded a Papp at 5.4 μM [1] of 27.6 ± 2.3 ×10⁻⁶ cm/s.
For `CN1CN(c2ccccc2)C2(CCN(CCCC(=O)c3ccc(F)cc3)CC2)C1=O` [[^3H]N-methyl spiperone, reference compound], the Kd (human 5-HT2A; human 5-HT2A, BHK, saturation (Scatchard) and kinetic analysis) was 0.92 nM.
In the case of `COc1c(OS(=O)(=O)O)cccc1C(O)C1CCN(CCc2ccc(F)cc2)CC1` (stereo not drawn) [Example 1H, Sulfuric acid mono-(+)-[3-(-{1-[2-(4-fluoro-phenyl)-ethyl]-piperidin-4-yl}-hydroxy-methyl)-2-methoxy-phenyl] ester], the Ki (human 5-HT2A; [3H]N-methyl spiperone, BHK cell membranes, 37° C.) is reported as 0.16 µM, the Ki (human D2L) is reported as > 1 µM and the Ki (human 5-HT2c) is reported as > 1 µM. For the same compound, the Ki (human α1A) was > 1 µM.
